Laboratory results as given in patent US20040043918A1, “Apoptosis inducers, caspase cascade activators and anticancer agent” (KIMIGAFUCHI GAKUEN, priority 2000, published 2004).
One block for each compound: values may come before it.

Tests used:
Type in all cases: cell-based
[1] = test system: human promyelocytes of leukemia (HL-60); test: Caspase-9 inhibition experiment using a flow cytometer (DNA fragmentation, PI dyeing)
Protocol: The following experiment was performed using the reagents prepared in section 1-1. First of all, multiple samples were prepared in stages wherein 0 to 120 μl of caspase-9 inhibitor was added to 12 ml of a suspension ([…]) of human promyelocytes of leukemia (HL-60, purchased from Riken Cell Bank). Then, the mixture were incubated for 90 minutes, 2 ml of liposome solution comprising dimyristoyl phosphatidylcholine was each added to the samples. Subsequently, each of the samples were incubated for three hours. After washing each sample with 2 ml of −PBS, 5 ml of 70% ethanol was added to each sample, and each sample was left at freezing temperature for one hour so as to be subjected to tissue-fixing. Furthermore, following washing each sample with 2 ml of −PSB, 6 ml of RNase solution was added to each sample, and subsequently, each sample was incubated for 30 minutes. Next, following adding 670 μl of PI solution, each sample was shielded from light with aluminum foil, and was left in a dark place at freezing temperature for 30 minutes, and was subjected to PI dyeing. After PI dyeing, each sample was subjected to centrifugal separation at 2000 rpm for five minutes. After removal of supernatant, and the precipitation formed was suspended in 500 μl of −PBS so as to measure DNA content using a flow cytometer (product name, COULTER EPICS-XL). Inhibition effects were evaluated by the ratios of the DNA fragmentation percentage of the control (wherein no caspase-9 inhibitor was added, and only a liposome solution comprising dimyristoyl phosphatidylcholine was added) to the DNA fragmentation percentages of the samples wherein caspase-9 inhibitor was added in stages.

[2] = test system: human promyelocytes of leukemia (HL-60); test: Procaspase-3 catabolic enzyme inhibition experiment using a flow cytometer; settings: inhibitor preincubated, then DMPC liposome solution, FIG. 4
[3] = test system: human promyelocytes of leukemia (HL-60); test: Caspase-1,4 inhibition experiment using a flow cytometer; settings: inhibitor preincubated, then DMPC liposome solution, FIG. 5
[4] = control without caspase-9 inhibitor, only DMPC liposome solution, three hours

DNA fragmentation of human promyelocytes of leukemia [1, 4]: clearly observed
Compound: CCCCCCCCCCCCCC(=O)OC[C@H](COP(=O)([O-])OCC[N+](C)(C)C)OC(=O)CCCCCCCCCCCCC [dimyristoyl phosphatidylcholine, 1,2-dimyristoyl-sn-glycero-3-phosphocholine]
apoptosis induction [1, 4]: apoptosis was induced

Compound: Ac—L-Ile-L-Glu-L-Thr-L-Asp-H [procaspase-3 catabolic enzyme inhibitor]
DNA fragmentation percentage with procaspase-3 catabolic enzyme inhibitor added in stages [2]: decreased approximately depending upon the concentration

Compound: Ac—L-Leu-L-Glu-L-His-L-Asp-H [caspase-9 inhibitor]
DNA fragmentation percentage with caspase-9 inhibitor added in stages ([1]; 0 to 120 μl inhibitor preincubated 90 minutes, then DMPC liposome solution for three hours, FIG. 3): decreased approximately depending upon the concentration

Compound: Ac—L-Tyr-L-Val-L-Ala-L-Asp-H [caspase-1,4 inhibitor]
DNA fragmentation percentage with caspase-1,4 inhibitor added in stages [3]: decreased approximately depending upon the concentration
